Assay results: PMC7045321 (ACS Omega, 2020)

Assays:
[1] = system: S. aureus; assay: Time-kill kinetics in MHB; format: cell-based, Staphylococcus aureus; conditions: 4 × MIC in MHB
[2] = system: S. aureus; assay: Time-kill kinetics in MHB with 10% serum; format: cell-based, Staphylococcus aureus; conditions: 4 × MIC in MHB with 10% fetal bovine serum (FBS), 37 °C

`CN[C@H](CC(C)C)C(=O)N[C@H]1C(=O)N[C@@H](CC(N)=O)C(=O)N[C@H]2C(=O)N[C@H]3C(=O)N[C@H](C(=O)N[C@H](C(=O)O)c4cc(O)cc(O)c4-c4cc3ccc4O)[C@H](O)c3ccc(c(Cl)c3)Oc3cc2cc(c3O[C@@H]2O[C@H](CO)[C@@H](O)[C@H](O)[C@H]2O[C@H]2C[C@](C)(N)[C@H](O)[C@H](C)O2)Oc2ccc(cc2Cl)[C@H]1O` [vancomycin] was tested. Which “log reduction after 24 h” value ([1]; 37 °C) did it give?
The value was 3 log.

What about the “time to complete eradication of viable S. aureus cells” value ([1]; ~10^5 CFU mL^–1, 37 °C, followed for 24 h) of the same compound?
The value was “not complete eradication”.

What about the “log reduction in cell viability after 3 h exposure” value [2] of the same compound?
The value was 1 log.
